What was measured:
[1] = target: T1, CAT-1 (carnitine acyltransferase 1) (Rattus norvegicus, UniProt Q63704); experiment: Primary Screen--Inhibition of CAT-1 in isolated mitochondria; format: biochemical; details: rat heart mitochondria, reduction of palmitoyl carnitine formation by 50%; read-out: Primary Screen IC50
T1 construct: This preparation is used as the isolated mitochondrial preparation; from tissue; host or cells: rat heart (atria removed), isolated mitochondria
T1 sequence (Q63704 1-772): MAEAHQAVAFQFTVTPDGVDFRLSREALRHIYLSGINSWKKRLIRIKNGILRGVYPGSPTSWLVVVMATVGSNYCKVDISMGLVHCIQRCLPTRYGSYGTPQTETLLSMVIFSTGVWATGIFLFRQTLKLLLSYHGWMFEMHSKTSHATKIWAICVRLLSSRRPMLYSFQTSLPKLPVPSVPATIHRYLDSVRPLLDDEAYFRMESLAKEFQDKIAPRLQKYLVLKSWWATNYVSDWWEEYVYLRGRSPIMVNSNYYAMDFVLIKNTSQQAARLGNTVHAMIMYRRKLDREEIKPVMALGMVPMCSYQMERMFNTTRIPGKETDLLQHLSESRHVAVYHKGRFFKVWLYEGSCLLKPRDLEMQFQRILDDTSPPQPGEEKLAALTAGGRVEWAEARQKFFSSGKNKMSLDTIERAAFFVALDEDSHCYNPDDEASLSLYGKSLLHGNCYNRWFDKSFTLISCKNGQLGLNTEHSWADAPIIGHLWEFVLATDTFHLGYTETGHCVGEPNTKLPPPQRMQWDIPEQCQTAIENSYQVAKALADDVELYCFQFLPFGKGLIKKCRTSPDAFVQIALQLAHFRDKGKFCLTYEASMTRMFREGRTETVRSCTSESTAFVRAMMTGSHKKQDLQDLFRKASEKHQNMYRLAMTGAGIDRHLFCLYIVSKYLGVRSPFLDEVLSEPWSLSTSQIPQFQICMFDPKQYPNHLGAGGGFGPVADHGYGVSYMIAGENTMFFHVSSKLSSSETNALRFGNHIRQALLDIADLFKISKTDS
Procedure: Primary Screen--Inhibitors of CAT-1 in 1Mitochondria
(a). Preparation of Mitochondria
The heart is rapidly removed from an anesthetized rat (sodium pentabarbitol) and placed in ice-cold homogenization buffer (sucrose, 250 mM; Tris, 10 mM; EDTA, 1 mM; BSA, 0.01%; pH=7.4). The atria and extraneous tissue are removed and the remainder is chopped with scissors. The pieces are rinsed in homogenization buffer before being homogenized in 10 mL of the same buffer for 5-7 seconds. The homogenate is then diluted with homogenization buffer (40 total volume) and centrifuged at 200 g for 20 minutes. The supernatant is withdrawn and centrifuged at 7000 g for 20 minutes and the resulting pellet is isolated, resuspended in 40 mL of homogenization buffer and centrifuged once more at 7000 g for 20 minutes. The isolated pellet is resuspended in 10 mL of homogenization buffer and stored at 4° C. until use. This preparation is used as the isolated mitochondrial preparation.
(b). Inhibition of CAT-1 assay
Isolated mitochondria (20 μL) are incubated with 60 μL of Tris/sucrose buffer (sucrose, 500 mM; Tris, 20 mM; KCl, 100 mM; EDTA, 2 mM; pH=7.0 plus 83 μM palmitoyl CoA, and BSA, 0.8 mg/mL and 10^-4 to 10^-10 M of the drug to be tested. After 10 minutes at 30° C., the reaction is started by addition of 10 μL of ^3 H-carnitine (final concentration=250 μM). After 5 minutes, the reaction is terminated by the addition of ice cold 70% perchloric acid (PCA). The precipitated solids so formed, containing the insoluble product of the enzyme palmitoyl carnitine, are captured on filter paper. The filter paper is washed with 7% PCA, then dried and placed in scintillation vials with 10 mL of scintillant (Aquasol, New England Nuclear) and counted for radioactivity. The rate of the reaction is assessed by the difference in radioactivity between zero time and five minutes in the absence of test compound. The ability of test compounds at selected concentrations to inhibit CAT-1 is determined by their ability to reduce the formation of the radioactive product. The IC50 of the test compound is the concentration of test compound that reduces the formation of radioactive product by 50%.

[2] = target: T1, CAT-1 (carnitine acyltransferase 1); experiment: Secondary Screen--Inhibition of CAT-1 in intact cardiac myocytes (hypoxia-induced increase in long-chain acylcarnitines); format: cell-based; details: isolated rat cardiac myocytes, 50% inhibition of hypoxia-induced increase in long-chain acylcarnitines
Procedure: Secondary Screen--Inhibition of CAT-1 in intact Cardiac Myocytes
(a) Preparation of Isolated Rat Cardiac Myocytes
Four hearts are excised from anesthetized rats and perfused retrogradly via the Langendorf technique. Each heart receives 100 mL of Krebs (NaCl, 118.4 mM; KCL, 4.6 mM; NaH2 PO4, 1.0 mM; NaHCO3, 20 mM; MgSO4, 2 mM; CaCl2, 50 μM; glucose, 11.0 mM), 100 mL of Ca++ free Krebs and finally 100 mL of 0.5% collagenase (Boehringer Mannhelm, type 1) in Hepes (NaCl, 115 mM; KCl, 5 mM; sucrose, 35 mM; glucose, 10 mM; Hepes, 10 mM; taurine, 4 mM; MgSO4, 2 mM; CaCl2, 50 μM). After these perfusions, the hearts are chopped into pieces, approx. 0.5 cm×0.5 cm and placed in four 125 mL plastic bottles along with 25 mL of collagenase/Hepes situated in a water bath maintained at 35° C. The pieces of cardiac tissue in each bottle are agitated by using a Harvard respirator connected to four glass syringes, which sucks the tissue up and down each tube during each respiratory cycle. After fifteen minutes, the collagenase/Hepes is removed and replaced with fresh collegenase/Hepes and the process repeated. The collegenase/Hepes from the subsequent fifteen minute harvests are centrifuged at 500 g to pellet the cells which are then resuspended in Hepes buffer. After six harvests, all cells are pelleted, resuspended in 2×26.5 mL of Hepes plus BSA (350 mg) and layered on top of 2×percoll gradients (21.15 mL percoll, 2.35 mL NaCl, 6 drops acetic acid). This is centfifuged at 3000 g for eight minutes forming a percoll gradient which results in viable cells being separated from damaged cells. The viable cells are removed, washed with Hepes and finally resuspended in 25 mL of Hepes.
The isolated cardiac myocytes (2 mL; approximately 1×10^6 cells) are separated into six glass pods. Into four of these are placed selected concentrations of the compound to be tested, and the cells are incubated for twenty minutes, after which the pods are centrifuged at 300 g for three minutes. 300 μL of normoxic Hepes is placed in one of the pods not containing compound and then all pods are placed in a hypoxic chamber (N2 atmosphere). Oxygen is fed via small bore steel tubes to the pod containing the normoxic buffer, while the other five pods receive pre-purified argon (99.998% pure). After two minutes, Hepes (pre-gassed with argon for at least twelve hours) is fed into the five hypoxic pods. This hypoxic environment (pO2 <10 mm Hg) is maintained for twenty minutes, after which the cells and pods are frozen by contact with a metal block precooled in liquid N2. The pods are then removed from the chamber and stored at -70° C. The carnitine assay is performed, as described below in (c), to determine the amount of long-chain acylcarnitine in the cells from the normoxic, hypoxic and hypoxic plus compound samples. […] Thus the IC50 in this screen is the concentration of test compound which produces a 50% inhibition of the hypoxia-induced increase in long-chain acylcarnitines.
(c) Long-chain Acylcarnitine Assay.
The frozen cell samples are thawed, mixed and homogenized with 40 μL of 70% PCA. The homogenate is transferred to eppendorf tubes while the homogenization tube and the glass pod is rinsed with 500 μL of 7% PCA, with the rinse being added to the eppendorf tube. This is then centrifuged at 1000 g for two minutes to pellet the precipitate (containing the long-chain acylcarnitine) and the supernatant is discarded. The pellet is washed twice with 500 μL of 7% PCA, the supernatants being discarded. The pellet is then hydrolyzed (to separate the acyl unit from carnitine to yield free carnitine) by the addition of 200 μL of aleionized H2 O and 50 μL of 5N KOH and incubated at 70° C. for ninety minutes.

| SMILES | IC50 [1] | IC50 [2] |
| --- | --- | --- |
| O=C(O)/C(=N/O)c1ccc(OCCOc2ccc3ccccc3c2)s1 [Example 302, (Z)-alpha-(hydroxyimino)-5-[2-(2-naphthalenyloxy)ethoxy]-2-thiopheneaceticacid] | 0.24 µM | 0.9 µM |
| CCC(C)(C)C(=O)OCc1cccc(C)c1OCCOc1ccc(/C(=N/OC)C(=O)O)cc1 [Example 304, (Z)-4-[2-[2-[(2,2-Dimethyl-1-oxobutoxy)methyl]-6-methylphenyloxy]ethoxy]-alpha-methoxyiminobenzeneacetic acid] | 3.3 µM | 5 µM |
| CO/N=C(/C(=O)O)c1ccc(OCCOc2ccc3ccccc3c2)s1 [Example 306, (Z)-alpha-(methoxyimino)-5-[2-(2-naphthalenyloxy)ethoxy]-2-thiopheneaceticacid (2:1) hydrate] | 0.3 µM | 7 µM |
| CO/N=C(\C(=O)O)c1ccc(OCCOc2ccc3ccccc3c2)s1 [Example 307, (E)-alpha-(methoxyimino)-5-[2-(2-naphthalenyloxy)ethoxy]-2-thiopheneaceticacid] | 1.5 µM | 5 µM |

Further molecules by falling IC50 [1], results first:

| IC50 [1] | IC50 [2] | SMILES |
| --- | --- | --- |
| 2.1 µM | 5 µM | O=C(NO)C(=O)c1ccc(OCCOc2ccc3ccccc3c2)s1 [Example 300, N-hydroxy-5-[2-(2-naphthalenyloxy)ethoxy]-alpha-oxo-2-thiopheneacetamide] |
| 1.9 µM | 8 µM | CN(O)C(=O)C(=O)c1ccc(OCCOc2ccc3ccccc3c2)cc1 [Example 299, N-hydroxy-N-methyl-4-[2-(2-naphthalenyloxy)ethoxy]-alpha-oxobenzeneacetamide] |
| 0.58 µM | 2 µM | O=C(O)/C(=N\O)c1ccc(OCCOc2ccc3ccccc3c2)cc1 [Example 301, (Z)-alpha-(hydroxyimino)-4-[2-(2-naphthalenyloxy)ethoxy]benzeneacetic acid] |

Source: patent US5344843A, “Cat-1 inhibitors, pharmaceutical compositions and methods of use” (Hoffman-La Roche Inc., priority 1992, dated 1994)
